Experimental data published in the NIST ThermoML archive (doi:10.1021/je200421s).

Columns and labels:
[1] = mn = molality of the nth substance listed, in mol/kg; settings: 101 kPa, Liquid, Vibrating tube method
[2] = refractive index (Na D-line) (dimensionless); mn = molality of the nth substance listed, in mol/kg; settings: 298.15 K, 101 kPa, Liquid, Standard Abbe refractometry

CC(=O)NCCCCCCNC(C)=O [N,N'-diacetyl-1,6-hexanediamine] + O
mass density [kg/m3], [1]
Settings | m1 = 0.0999 | m1 = 0.1498 | m1 = 0.1998 | m1 = 0.25 | m1 = 0.3001 | m1 = 0.3503 | m1 = 0.3984
288.15 K | 1000.16 | 1000.68 | 1001.23 | 1001.78 | 1002.34 | 1002.88 | 1003.42
293.15 K | 999.201 | 999.691 | 1000.2 | 1000.72 | 1001.25 | 1001.75 | 1002.26
298.15 K | 997.982 | 998.441 | 998.923 | 999.415 | 999.908 | 1000.38 | 1000.87
303.15 K | 996.53 | 996.965 | 997.419 | 997.884 | 998.347 | 998.795 | 999.248
308.15 K | 994.869 | 995.284 | 995.708 | 996.146 | 996.58 | 997.002 | 997.432

[2]
Settings | refractive index
m1 = 0.0999 | 1.335
m1 = 0.1498 | 1.3365
m1 = 0.1998 | 1.338
m1 = 0.25 | 1.3396
m1 = 0.3001 | 1.3409
m1 = 0.3503 | 1.342
m1 = 0.3984 | 1.3433

O [water] + CC(=O)NCCCCCCNC(C)=O
Settings | refractive index
[2], m2 = 0 | 1.332

O=C[C@H](O)[C@@H](O)[C@H](O)[C@H](O)CO [D-glucose] + O
mass density [kg/m3], [1]
Settings | m1 = 0.05 | m1 = 0.1 | m1 = 0.2 | m1 = 0.3 | m1 = 0.5 | m1 = 0.8
288.15 K | 1002.58 | 1006 | 1012.64 | 1019.21 | 1031.87 | 1050.04
293.15 K | 1001.65 | 1005.04 | 1011.63 | 1018.15 | 1030.73 | 1048.76
298.15 K | 1000.46 | 1003.84 | 1010.38 | 1016.85 | 1029.34 | 1047.27
303.15 K | 999.043 | 1002.39 | – | 1015.33 | 1027.75 | 1045.58
308.15 K | – | 1000.75 | – | 1013.63 | 1025.96 | 1043.7

[2]
Settings | refractive index
m1 = 0.05 | 1.3331
m1 = 0.1 | 1.3343
m1 = 0.2 | 1.3368
m1 = 0.3 | 1.3392
m1 = 0.5 | 1.3443
m1 = 0.8 | 1.351

OC[C@H]1O[C@@](CO)(O[C@H]2O[C@H](CO)[C@@H](O)[C@H](O)[C@H]2O)[C@@H](O)[C@@H]1O [D-sucrose] + O
mass density [kg/m3], [1]
Settings | m1 = 0.05 | m1 = 0.1 | m1 = 0.2 | m1 = 0.3 | m1 = 0.5 | m1 = 0.8
288.15 K | 1005.67 | 1012.18 | 1024.44 | 1036.52 | 1059.36 | 1089.54
293.15 K | 1004.73 | 1011.2 | 1023.38 | 1035.39 | 1058.1 | 1088.1
298.15 K | 1003.53 | 1009.97 | 1022.08 | 1034.03 | 1056.62 | 1086.46
303.15 K | 1002.11 | 1008.5 | 1020.57 | 1032.45 | 1054.93 | 1084.64
308.15 K | 1000.46 | 1006.83 | 1018.84 | 1030.68 | 1053.07 | 1082.65

[2]
Settings | refractive index
m1 = 0.05 | 1.3343
m1 = 0.1 | 1.3368
m1 = 0.2 | 1.3415
m1 = 0.3 | 1.3458
m1 = 0.5 | 1.3542
m1 = 0.8 | 1.3656
